Results: patent US8778888B2, “Cystine knot peptides binding to alpha IIb beta 3 integrins and methods of use” (The Board of Trustees of the Leland Stanford Junior …, priority 2009, dated 2014)
Where two headings read alike, the source gives them in different places. Bridge positions count the residues as written; N and C are the ends. Square brackets hold non-standard residues; d marks the D form. Peptide text beside a SMILES is read from it. hArg = N=C(N)NCCCC[C@H](N)C(=O)O; Mpa = O=C(O)CCS

Columns and labels:
human platelets = conditions: read-out: aggregation (IC50; nM) human platelets, platelets activated with 25 μM ADP, A365 end point over 1 h
Experimental: Human platelets isolated by pheresis were obtained from the Stanford Blood Center and stored in serum with 7% acid/citrate/dextrose (ACD) solution. Prior to use, the platelets were centrifuged, aspirated, washed once with Tyrode's buffer (140 mM NaCl, 3 mM KCl, 12 mM NaHCO3, 0.4 mM NaH2PO4, 2 mM MgCl2, 0.1% glucose, pH 7.4), and counted using a haemacytometer. Counted platelets were resuspended in fresh plasma to a final concentration of approximately 2.8×10^8 cells/mL. 180 μL of the platelet solution, or approximately 5×10^7 platelets, were added to separate wells in a 96-well microtiter plate. AgRP peptide or eptifibatide (Cell Sciences) were added to the wells at varying concentrations, after which the platelets were activated with 25 μM ADP. Absorbance at 365 nm was monitored over 1 hr using a Synergy 4 microplate reader (BioTek Instrumentation) with readings taken every 35 s, with 3 s of shaking between readings. […] Experiments were performed at least 3 times.
Next, the effects of the engineered AgRP peptides on αIIbβ3-mediated platelet aggregation were studied. Three αIIbβ3-specific peptides (2bA, 2bJ, and 2bO) and two β3-specific peptides (b3A and b3I) were tested again. […] Microtiter plates containing platelets in serum in the presence or absence of AgRP peptides were activated using ADP at a final concentration of 25 μM, and absorbance at 365 nm was monitored over 1 h.

[1] = cited from earlier work; for bleeding in patients: clinical use
αIIbβ3 integrin = αIIbβ3 integrin (Homo sapiens, UniProt P05106+P08514); conditions: clinical use; cited from earlier work
[2] = system: ADP-induced platelet aggregation; conditions: clinical use; cited from earlier work
[3] = system: αvβ3 integrin and the leukocyte integrin Mac-1; conditions: cited from earlier work
αvβ3 integrin = target: T1, αvβ3 integrin (Homo sapiens, UniProt P05106+P06756); assay: Yeast-displayed AgTx constructs binding to αvβ3 integrin; conditions: 10 nM αvβ3, the lowest concentration tested
T1 construct: purchased Millipore
Experimental: The yeast library was grown in selective media (SD-CAA, 20 g/L glucose, 6.7 g/L yeast nitrogen base without amino acids, 5.4 g/L Nα2HPO4, 8.6 g/L NaH2PO4.H2O, and 5 g/L Bacto casamino acids) and induced in selective media containing galactose (SG-CAA). For library screening, 5 to 25×10^6 yeast (depending on the sort round) were labeled with detergent-solubilized integrin and a 1:250 dilution of chicken anti-c-myc IgY (Invitrogen) in integrin binding buffer (IBB, 20 mM Tris pH 7.5 with 1 mM MgCl2, 1 mM MnCl2, 2 mM CaCl2, 100 mM NaCl, and 1 mg/mL bovine serum albumin) at room temperature for 2 h. The yeast cells were centrifuged at 4° C. and the supernatant was removed by aspiration. The yeast were then resuspended in ice-cold BPBS (PBS containing 1 mg/mL bovine serum albumen) containing a 1:100 dilution of phycoerythrin-conjugated goat anti-chicken IgY secondary antibody (Santa Cruz Biotechnology) and a 1:25 dilution of either fluorescein-conjugated anti-αvβ3 antibody (Biolegend) or fluorescein-conjugated anti-αIIb antibody (Biolegend), as appropriate. After incubation for 20 min on ice, the yeast were centrifuged, aspirated, and stored as pellets on ice until cell sorting. Yeast library screening was performed using a Becton Dickinson FACS Vantage SE instrument (Stanford FACS Core Facility) and CellQuest software. […]

T1 sequence (P06756 31-889 limits assumed): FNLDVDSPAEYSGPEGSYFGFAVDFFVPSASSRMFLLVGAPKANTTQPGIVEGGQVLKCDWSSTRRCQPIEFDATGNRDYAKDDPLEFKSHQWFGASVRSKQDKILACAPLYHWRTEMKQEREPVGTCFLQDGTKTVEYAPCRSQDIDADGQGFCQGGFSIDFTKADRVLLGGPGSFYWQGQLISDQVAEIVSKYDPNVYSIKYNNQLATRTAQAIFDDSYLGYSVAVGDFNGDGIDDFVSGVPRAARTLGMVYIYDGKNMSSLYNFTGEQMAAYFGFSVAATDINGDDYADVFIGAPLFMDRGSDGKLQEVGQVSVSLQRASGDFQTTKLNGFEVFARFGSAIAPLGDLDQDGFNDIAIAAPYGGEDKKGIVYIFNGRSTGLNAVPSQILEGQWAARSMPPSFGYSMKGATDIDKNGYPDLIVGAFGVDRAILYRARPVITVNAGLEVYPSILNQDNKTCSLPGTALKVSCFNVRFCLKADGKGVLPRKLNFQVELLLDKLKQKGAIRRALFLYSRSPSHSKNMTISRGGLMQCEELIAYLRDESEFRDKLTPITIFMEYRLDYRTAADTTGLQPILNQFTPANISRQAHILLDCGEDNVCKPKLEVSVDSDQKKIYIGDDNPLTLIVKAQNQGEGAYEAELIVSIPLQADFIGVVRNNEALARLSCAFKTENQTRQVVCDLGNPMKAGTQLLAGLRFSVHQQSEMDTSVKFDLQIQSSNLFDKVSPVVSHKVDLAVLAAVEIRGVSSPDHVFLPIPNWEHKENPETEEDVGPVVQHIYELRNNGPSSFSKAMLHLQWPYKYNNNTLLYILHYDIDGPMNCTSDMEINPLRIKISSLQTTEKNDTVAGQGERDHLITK
T1 sequence (P06756 891-1048 partner limits assumed): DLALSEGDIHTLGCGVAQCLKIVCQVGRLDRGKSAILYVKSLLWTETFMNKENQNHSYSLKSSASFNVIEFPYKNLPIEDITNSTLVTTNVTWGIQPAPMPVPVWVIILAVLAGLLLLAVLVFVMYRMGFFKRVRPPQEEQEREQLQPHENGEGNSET
T1 sequence (P05106 27-788): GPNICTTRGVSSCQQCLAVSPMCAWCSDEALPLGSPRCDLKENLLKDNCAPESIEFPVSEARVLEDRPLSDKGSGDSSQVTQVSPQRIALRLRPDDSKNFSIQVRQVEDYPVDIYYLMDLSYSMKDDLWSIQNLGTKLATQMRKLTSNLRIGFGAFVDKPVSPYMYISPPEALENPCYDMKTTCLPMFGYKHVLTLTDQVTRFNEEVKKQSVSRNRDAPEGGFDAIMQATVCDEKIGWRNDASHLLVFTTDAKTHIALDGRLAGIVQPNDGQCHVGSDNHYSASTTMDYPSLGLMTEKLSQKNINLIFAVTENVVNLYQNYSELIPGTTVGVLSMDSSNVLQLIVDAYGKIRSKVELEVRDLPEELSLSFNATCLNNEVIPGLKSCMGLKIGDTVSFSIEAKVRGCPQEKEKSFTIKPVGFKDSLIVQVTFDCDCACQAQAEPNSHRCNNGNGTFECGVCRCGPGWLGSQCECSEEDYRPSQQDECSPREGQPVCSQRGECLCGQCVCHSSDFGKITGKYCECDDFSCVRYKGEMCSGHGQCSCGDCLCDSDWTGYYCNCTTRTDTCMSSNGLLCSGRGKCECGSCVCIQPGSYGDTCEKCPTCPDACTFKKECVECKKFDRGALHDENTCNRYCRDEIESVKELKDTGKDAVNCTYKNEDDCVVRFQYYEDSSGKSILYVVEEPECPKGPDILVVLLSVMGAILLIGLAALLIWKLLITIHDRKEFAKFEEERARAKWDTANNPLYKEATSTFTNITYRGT

N=C(N)NCCCC[C@@H]1NC(=O)CCSSC[C@@H](C(N)=O)NC(=O)[C@@H]2CCCN2C(=O)[C@H](Cc2c[nH]c3ccccc23)NC(=O)[C@H](CC(=O)O)NC(=O)CNC1=O [eptifibatide, Mpr-Har-Gly-Asp-Trp-Pro-Cys, reference compound] ([Mpa][hArg]GDWPC-NH2; disulfide 1-7)
IC50 (human platelets): 94 ± 14 nM
IC50 (human platelets; listed as Eptifibatide): 80 nM
bleeding in patients [1]: no increases in bleeding have been reported

Abciximab: αIIbβ3 integrin-specific antibody fragment c7E3
blockage of αIIbβ3 integrin (αIIbβ3 integrin): > 90%
inhibition of ADP-induced platelet aggregation [2]: > 80%
bleeding in patients [1]: bleeding issues in many patients
persistence of the antibody in the patient ([1]; in spite of a 12-hour infusion): over two-thirds of the antibody persists in the patient for several weeks
binding to other integrins [3]: also binds to αvβ3 integrin and the leukocyte integrin Mac-1

GCIAEDYGRCTWGGTPCCRGRGCICSGRGDNDLVCECT [AgTx2-7A, AgRP 7A loop 4 grafted into AgTx consensus 2]
binding to αvβ3 integrin on yeast surface (αvβ3 integrin): Binding was observed at 10 nM αvβ3

GCIAEDYGRCTWGGTPCCRGRPCRCSGRGDNDLVCECT [AgTX-1-7A, AgRP 7A loop 4 grafted into AgTx consensus 1]
binding to αvβ3 integrin on yeast surface (αvβ3 integrin): Binding was observed at 10 nM αvβ3
